From patent US20070092877A1, “Bcrm-1 genes and uses thereof” (priority 2003, published 2007)

Test system: 293T cells stably transfected with a BCRM-1 expression vector
Experiment: clonogenic assays of stably transfected 293T cells with cisplatin
Assay type: cell-based
Conditions: clone with the highest level of BCRM-1 vs control vector transfectants, FIG. 3
Text: To investigate whether BCRM-1 could render cells resistant to DNA-damaging agents, 293T cells were stably transfected with a BCRM-1 expression vector (FIG. 3). The BCRM-1 full length EcoRI-XhoI fragment was cloned into the EcoRI-XhoI sites of the pcDNA6/Bsd vector (Clontech, Palo Alto, Calif.). 293T cells were transfected with the BCRM/bsd vector or an empty pcDNA/bsd vector, respectively, by the method described in Example 8 above; Stable transfectants were selected through serial passages in the presence of blasticidin 10 μg/ml (Clontech, Palo Alto, Calif.). These blasticidin-resistant clones were isolated and repicked using the same selection procedure. One of these clones expressed the highest level of BCRM-1 by Western blotting. It was further tested in clonogenic assays and found to be 5-10 times more resistant to DNA damaging agent cisplatin than 293T cells stably transfected with the control vector (FIG. 3).

For `N.N.[Cl][Pt][Cl]` [cisplatin], which “resistance to cisplatin of the BCRM-1 expressing clone relative to 293T cells stably transfected with the control vector” value is on record?
Its value is 5-10 times.
